The subject of this assay is human platelets. The assay can be described thus: Calcium release in saponin-permeabilized human platelets (Quin2 fluorescence). It is filed as cell-based. As to conditions: Platelet, pH 7.4, increase in Quin2-fluorescence, read-out: EC50 (effective concentration), release of Calcium. As for the experimental part:
Human platelets were purified in the presence of citrate by differential centrifugation and resuspended to ca 1×10exp9 cells/ml in Tyrode-HEPES-(N-2-hydroxyethyl-piperazine-N'-2 ethane-sulfonic acid)-buffer pH 7.4 containing 0.2% w/v Bovine Serum Albumin and 1 mM EGTA (Ethylene Glycol Bis (β-Aminoethyl Ether)N,N,N',N'-Tetraacidic acid). After 20 min, the platelets were centrifuged again (700×g, 20 min) and resuspended to the same concentration in 4 ml of "assay-buffer" containing:
1.2 mM Potassiumdihydrogenphosphate
25 mM HEPES-buffer, pH as indicated
After a further 30 min, the platelet suspension was diluted 5-fold into assay-buffer containing 2 μM Quin2 (2-[[2-[bis(carboxymethyl)amino]-5-methyl-phenoxy]methyl]-6-methoxy-8-[bis[…]]quinoline) salt as a fluorescence indicator for Calcium. To this suspension Saponin was added to a final concentration of 20 μg/ml to permeabilize the cells. The fluorescence of the suspension was continually monitored with a fluorescence spectrometer until a stable baseline was achieved. At this point, IP3 was added and the resulting release of Calcium measured as an increase in the intensity of the Quin2-fluorescence. An EC50 (effective concentration) value of 2×10exp-7M was obtained at pH 7.4. IP2-5-MP itself had no effect on release of Calcium. […]

Consider `O=P(O)(O)O[C@@H]1[C@H](O)[C@H](O)[C@@H](OP(=O)(O)O)[C@H](OP(=O)(O)O)[C@H]1O` [IP3, d-myo inositol(1.4.5)trisphosphate], for which the EC50 is 200 nM.

The values above are taken from US5395828A, “Inositol phosphate analogues as calcium-antagonistic substances” (Hoechst Aktiengesellschaft, priority 1991, dated 1995).
